In ChEMBL document CHEMBL1151538, “Rearrangement of unsymmetrical azetidinone disulfides to 2-(heterocyclylthiomethyl)penams, a synthetic approach to new -lactamase inhibitors” (Bioorg Med Chem Lett, 1993):

Assays:
Beta-lactamase BRO-1 = biological target: T1, Beta-lactamase BRO-1 (Moraxella catarrhalis, UniProt Q59514); experiment: Inhibitory activity against Branhamella catarrhalis 89001 Class-III BRO-1 type beta-lactamase enzyme; set-up: species or system b.catarr
T1 sequence (Q59514 whole entry): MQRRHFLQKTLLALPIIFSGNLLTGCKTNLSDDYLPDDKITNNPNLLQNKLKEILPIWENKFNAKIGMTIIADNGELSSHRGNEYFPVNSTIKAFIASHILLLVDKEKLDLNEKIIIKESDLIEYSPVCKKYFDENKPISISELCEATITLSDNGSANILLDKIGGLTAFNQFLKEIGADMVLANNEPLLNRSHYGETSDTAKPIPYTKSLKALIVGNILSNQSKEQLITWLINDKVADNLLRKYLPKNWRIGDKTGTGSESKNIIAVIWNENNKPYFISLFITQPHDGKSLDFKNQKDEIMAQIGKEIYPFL

Beta-lactamase SHV-1 = biological target: T2, Beta-lactamase SHV-1 (Escherichia coli, UniProt P0AD63); experiment: Inhibitory activity against Escherichia coli HA208 Class-III SHV-1 type beta-lactamase enzyme
T2 sequence (P0AD63 whole entry): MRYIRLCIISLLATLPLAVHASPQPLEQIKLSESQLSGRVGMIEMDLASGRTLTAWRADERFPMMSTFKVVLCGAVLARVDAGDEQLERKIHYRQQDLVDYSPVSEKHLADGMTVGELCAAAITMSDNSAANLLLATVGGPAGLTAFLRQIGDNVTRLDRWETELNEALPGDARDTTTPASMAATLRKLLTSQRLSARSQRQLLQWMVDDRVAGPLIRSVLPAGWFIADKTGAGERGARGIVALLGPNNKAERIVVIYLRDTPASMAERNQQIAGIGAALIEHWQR

Beta-lactamase OXA-1 = Beta-lactamase OXA-1 (Escherichia coli, UniProt P13661); experiment: Inhibitory activity against Escherichia coli HA209 Class-V OXA-1 type beta-lactamase enzyme
Beta-lactamase TEM = Beta-lactamase TEM (Escherichia coli, UniProt P62593); experiment: Inhibitory activity against Escherichia coli HA58R Class-III TEM-1 type beta-lactamase enzyme
Beta-lactamase [1] = biological target: Beta-lactamase (Staphylococcus aureus, UniProt P00807); experiment: Inhibitory activity against Staphylococcus aureus CJ8 beta-lactamase enzyme
Beta-lactamase [2] = biological target: Beta-lactamase (Enterobacter cloacae, UniProt P05364); experiment: Inhibitory activity against Enterobacter cloacae HC8 Class-I beta-lactamase enzyme type P99
Beta-lactamase [3] = biological target: T3, Beta-lactamase (Klebsiella oxytoca, UniProt Q8RT60); experiment: Inhibitory activity against Klebsiella oxytoca HC7 Class-IV K1 type beta-lactamase enzyme
T3 sequence (Q8RT60 whole entry): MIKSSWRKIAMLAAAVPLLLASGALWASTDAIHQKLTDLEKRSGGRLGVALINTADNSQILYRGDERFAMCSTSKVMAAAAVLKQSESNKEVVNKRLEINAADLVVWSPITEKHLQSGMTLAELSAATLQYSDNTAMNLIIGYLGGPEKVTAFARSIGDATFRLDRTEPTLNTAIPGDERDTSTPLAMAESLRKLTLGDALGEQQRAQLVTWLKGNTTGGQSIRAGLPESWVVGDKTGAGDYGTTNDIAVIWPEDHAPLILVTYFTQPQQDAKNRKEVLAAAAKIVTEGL

Beta-lactamase [4] = biological target: Beta-lactamase (Citrobacter freundii, UniProt P05193); experiment: Inhibitory activity against Citrobacter freundii 87470 Class-I beta-lactamase enzyme
Chain of Beta-lactamase (Citrobacter freundii, UniProt P05193) (P05193 whole entry): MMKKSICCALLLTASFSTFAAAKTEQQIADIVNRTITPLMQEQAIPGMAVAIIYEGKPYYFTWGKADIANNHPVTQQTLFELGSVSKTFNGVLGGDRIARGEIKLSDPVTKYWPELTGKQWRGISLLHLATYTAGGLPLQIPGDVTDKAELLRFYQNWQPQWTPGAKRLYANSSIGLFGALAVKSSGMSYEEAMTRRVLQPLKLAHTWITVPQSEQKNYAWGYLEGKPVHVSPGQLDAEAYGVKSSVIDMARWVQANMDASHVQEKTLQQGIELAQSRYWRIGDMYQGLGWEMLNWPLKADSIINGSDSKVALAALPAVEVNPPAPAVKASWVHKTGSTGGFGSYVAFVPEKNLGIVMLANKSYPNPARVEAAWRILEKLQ

Chain of Beta-lactamase TEM (P62593 whole entry): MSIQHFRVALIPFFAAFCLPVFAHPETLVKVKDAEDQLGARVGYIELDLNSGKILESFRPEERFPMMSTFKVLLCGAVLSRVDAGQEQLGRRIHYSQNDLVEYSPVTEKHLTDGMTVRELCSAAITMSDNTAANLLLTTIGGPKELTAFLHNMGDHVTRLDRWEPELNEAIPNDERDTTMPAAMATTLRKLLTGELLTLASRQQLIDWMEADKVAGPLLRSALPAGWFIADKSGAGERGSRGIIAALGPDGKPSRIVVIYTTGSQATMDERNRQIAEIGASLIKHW
Chain of Beta-lactamase OXA-1 (P13661 whole entry): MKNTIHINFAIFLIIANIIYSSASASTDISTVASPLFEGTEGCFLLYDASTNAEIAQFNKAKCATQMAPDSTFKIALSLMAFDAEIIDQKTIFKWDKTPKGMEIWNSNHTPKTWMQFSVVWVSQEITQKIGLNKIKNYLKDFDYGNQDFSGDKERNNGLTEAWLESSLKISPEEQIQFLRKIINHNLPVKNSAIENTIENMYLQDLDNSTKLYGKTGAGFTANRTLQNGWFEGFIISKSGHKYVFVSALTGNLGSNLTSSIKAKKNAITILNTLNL
Chain of Beta-lactamase (Enterobacter cloacae, UniProt P05364) (P05364 whole entry): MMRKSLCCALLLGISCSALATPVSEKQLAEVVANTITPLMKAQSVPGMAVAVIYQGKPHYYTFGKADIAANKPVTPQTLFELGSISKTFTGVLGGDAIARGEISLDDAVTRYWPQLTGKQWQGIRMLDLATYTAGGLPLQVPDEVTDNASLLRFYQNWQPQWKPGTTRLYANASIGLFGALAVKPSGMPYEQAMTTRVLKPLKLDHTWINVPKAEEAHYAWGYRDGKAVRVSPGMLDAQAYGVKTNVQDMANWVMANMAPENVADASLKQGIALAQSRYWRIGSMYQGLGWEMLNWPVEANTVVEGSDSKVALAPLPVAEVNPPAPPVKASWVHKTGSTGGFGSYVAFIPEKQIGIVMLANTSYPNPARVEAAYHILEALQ
Chain of Beta-lactamase (Staphylococcus aureus, UniProt P00807) (P00807 whole entry): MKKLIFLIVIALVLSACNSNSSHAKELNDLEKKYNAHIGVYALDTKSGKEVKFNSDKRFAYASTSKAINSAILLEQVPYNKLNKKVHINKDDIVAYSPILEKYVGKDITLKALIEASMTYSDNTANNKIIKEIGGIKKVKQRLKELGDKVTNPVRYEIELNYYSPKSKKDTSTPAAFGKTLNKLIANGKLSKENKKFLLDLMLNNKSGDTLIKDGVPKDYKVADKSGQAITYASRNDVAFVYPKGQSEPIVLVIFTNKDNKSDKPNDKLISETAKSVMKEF

SMILES | IC50 (Beta-lactamase BRO-1) | IC50 (Beta-lactamase SHV-1) | IC50 (Beta-lactamase OXA-1) | IC50 (Beta-lactamase TEM) | IC50 (Beta-lactamase [1]) | IC50 (Beta-lactamase [2]) | IC50 (Beta-lactamase [3]) | IC50 (Beta-lactamase [4])
C[C@@]1(CSc2nc3ccccc3s2)S[C@@H]2[C@H](Br)C(=O)N2[C@H]1C(=O)O | 56.1 nM | 141 nM | 1410 nM | 35.9 nM | – | – | – | –
C[C@]1(CSC2=NCCS2)[C@H](C(=O)O)N2C(=O)C[C@H]2S1(=O)=O | 2.85 nM | 371 nM | 114 nM | 22.8 nM | – | – | – | –
CC1(C)[C@H](C(=O)O)N2C(=O)C[C@H]2S1(=O)=O [SULBACTAM] | – | 1710 nM | 1370 nM | – | – | – | – | –
Cn1nnnc1SC[C@]1(C)S[C@@H]2[C@H](Br)C(=O)N2[C@H]1C(=O)O | 50.7 nM | 1010 nM | 8120 nM | 101 nM | – | – | – | –
Cn1nnnc1SC[C@@]1(C)[C@H](C(=O)O)N2C(=O)C[C@H]2S1(=O)=O | 8.64 nM | 72 nM | 92.1 nM | 17.3 nM | – | – | – | –
C[C@]1(CSc2nc3ccccc3o2)[C@H](C(=O)O)N2C(=O)C[C@H]2S1(=O)=O | – | – | 83.7 nM | 10.5 nM | – | – | – | –
Cn1ccnc1SC[C@@]1(C)[C@H](C(=O)O)N2C(=O)C[C@H]2S1(=O)=O | 2.9 nM | 926 nM | 463 nM | – | – | – | – | –
C[C@@]1(CSc2nc3ccccc3o2)S[C@@H]2[C@H](Br)C(=O)N2[C@H]1C(=O)O | – | 147 nM | – | 30.3 nM | 116 nM | 18400 nM | 1160 nM | 14700 nM
C[C@]1(CSc2nc3ccccc3[nH]2)[C@H](C(=O)O)N2C(=O)C[C@H]2S1(=O)=O | – | 655 nM | – | 65.5 nM | – | – | – | –
Cn1cnnc1SC[C@@]1(C)[C@H](C(=O)O)N2C(=O)C[C@H]2S1(=O)=O | 2.89 nM | 577 nM | – | 72.2 nM | – | – | – | –
Cn1ccnc1SC[C@]1(C)S[C@@H]2[C@H](Br)C(=O)N2[C@H]1C(=O)O | 63.7 nM | 51 nM | 10200 nM | 15.3 nM | – | – | – | –
C[C@]1(Cn2ccnn2)[C@H](C(=O)O)N2C(=O)C[C@H]2S1(=O)=O [TAZOBACTAM] | 33.3 nM | 133 nM | – | – | – | – | – | –
O=C(O)[C@H]1/C(=C/CO)O[C@@H]2CC(=O)N21 [CLAVULANIC ACID] | 30.1 nM | – | – | – | – | – | – | –
